In ChEMBL document CHEMBL5357013, “Identification of Spiro[chromene-2,4'-piperidine]s as Potent, Selective, and Gq-Biased 5-HT2C Receptor Partial Agonists” (ACS Med Chem Lett, 2024):
Activity calls are given as the source filed them. The rule behind the calls is not given here.

Legend:
[1] = target: T1, 5-hydroxytryptamine receptor 2C (Homo sapiens) (UniProt P28335); assay: Partial agonist activity at human 5-HT2CR expressed in human Flp-In-T-REx-293 cells assessed as increase in calcium flux by measuring maximal efficacy incubated for 60 mins followed by incubation for 30 mins in dark by Flou-4 dye based FLIPR assay relative to control; assay type: functional, cell-based; conditions: time 90.0 min
T1 sequence (whole entry): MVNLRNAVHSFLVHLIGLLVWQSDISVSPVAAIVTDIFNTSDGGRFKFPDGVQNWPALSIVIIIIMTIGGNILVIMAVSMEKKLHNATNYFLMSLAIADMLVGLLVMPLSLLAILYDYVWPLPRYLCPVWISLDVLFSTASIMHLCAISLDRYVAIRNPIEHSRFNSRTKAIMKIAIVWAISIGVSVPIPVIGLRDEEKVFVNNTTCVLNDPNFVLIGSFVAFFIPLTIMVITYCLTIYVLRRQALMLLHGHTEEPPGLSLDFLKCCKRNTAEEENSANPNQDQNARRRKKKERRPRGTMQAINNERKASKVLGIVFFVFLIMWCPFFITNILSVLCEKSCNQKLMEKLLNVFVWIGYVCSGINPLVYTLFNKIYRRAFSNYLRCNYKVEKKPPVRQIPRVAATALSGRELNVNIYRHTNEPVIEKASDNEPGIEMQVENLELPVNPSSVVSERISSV

[2] = target: T2, 5-hydroxytryptamine receptor 2C (Homo sapiens, UniProt P28335); assay: Partial agonist activity at human 5-HT2CR expressed in human Flp-In-T-REx-293 cells assessed as increase in calcium flux incubated for 60 mins followed by incubation for 30 mins in dark by Flou-4 dye based FLIPR assay; assay type: functional, cell-based
T2 sequence (P28335 whole entry): T1 sequence (whole entry)

[3] = target: T3, 5-hydroxytryptamine receptor 2B (Homo sapiens, UniProt P41595); assay: Partial agonist activity at human 5-HT2BR expressed in human Flp-In-T-REx-293 cells assessed as increase in calcium flux by measuring maximal efficacy incubated for 60 mins followed by incubation for 30 mins in dark by Flou-4 dye based FLIPR assay relative to control; assay type: functional, cell-based; conditions: time 90.0 min
[4] = target: T3, 5-hydroxytryptamine receptor 2B; assay: Partial agonist activity at human 5-HT2BR expressed in human Flp-In-T-REx-293 cells assessed as increase in calcium flux incubated for 60 mins followed by incubation for 30 mins in dark by Flou-4 dye based FLIPR assay; assay type: functional, cell-based
[5] = target: 5-hydroxytryptamine receptor 2A (Homo sapiens) (UniProt P28223); assay: Partial agonist activity at human 5-HT2AR expressed in human Flp-In-T-REx-293 cells assessed as increase in calcium flux upto 10 uM incubated for 60 mins followed by incubation for 30 mins in dark by Flou-4 dye based FLIPR assay; assay type: functional, cell-based; conditions: time 90.0 min
[6] = target: T1, 5-hydroxytryptamine receptor 2C (Homo sapiens); assay: Agonist activity at human 5-HT2CR expressed in human Flp-In-T-REx-293 cells assessed as increase in calcium flux by measuring maximal efficacy incubated for 60 mins followed by incubation for 30 mins in dark by Flou-4 dye based FLIPR assay; assay type: functional, cell-based; conditions: filed as agonist, time 90.0 min
[7] = target: T2, 5-hydroxytryptamine receptor 2C; assay: Agonist activity at human 5-HT2CR expressed in human Flp-In-T-REx-293 cells assessed as increase in calcium flux incubated for 60 mins followed by incubation for 30 mins in dark by Flou-4 dye based FLIPR assay; assay type: functional, cell-based
[8] = target: T1, 5-hydroxytryptamine receptor 2C (Homo sapiens); assay: Partial agonist activity at human 5-HT2CR expressed in human Flp-In-T-REx-293 cells assessed as increase in calcium flux upto 10 uM incubated for 60 mins followed by incubation for 30 mins in dark by Flou-4 dye based FLIPR assay; assay type: functional, cell-based; conditions: time 90.0 min
[9] = target: T1, 5-hydroxytryptamine receptor 2C (Homo sapiens); assay: Partial agonist activity at Rluc-tagged 5-HT2CR (unknown origin) transfected in HEK293T cells assessed as beta-arrestin-2 recruitment incubated for 10 mins by coelenterazine 400a based BRET assay; assay type: functional, cell-based
hERG (KCNH2) [10] = target: T4, hERG (KCNH2) (Homo sapiens, UniProt Q12809); assay: Inhibition of hERG expressed in CHO cells at 10 uM by automated patch clamp method relative to control; assay type: toxicity, cell-based; conditions: CHO cells that express hERG
hERG (KCNH2) [11] = target: T4, hERG (KCNH2); assay: Inhibition of hERG at 10 uM relative to control; assay type: toxicity
[12] = target: T3, 5-hydroxytryptamine receptor 2B; assay: Partial agonist activity at human 5-HT2BR expressed in human Flp-In-T-REx-293 cells assessed as increase in calcium flux upto 10 uM incubated for 60 mins followed by incubation for 30 mins in dark by Flou-4 dye based FLIPR assay; assay type: functional, cell-based; conditions: time 90.0 min

T3 sequence (P41595 whole entry): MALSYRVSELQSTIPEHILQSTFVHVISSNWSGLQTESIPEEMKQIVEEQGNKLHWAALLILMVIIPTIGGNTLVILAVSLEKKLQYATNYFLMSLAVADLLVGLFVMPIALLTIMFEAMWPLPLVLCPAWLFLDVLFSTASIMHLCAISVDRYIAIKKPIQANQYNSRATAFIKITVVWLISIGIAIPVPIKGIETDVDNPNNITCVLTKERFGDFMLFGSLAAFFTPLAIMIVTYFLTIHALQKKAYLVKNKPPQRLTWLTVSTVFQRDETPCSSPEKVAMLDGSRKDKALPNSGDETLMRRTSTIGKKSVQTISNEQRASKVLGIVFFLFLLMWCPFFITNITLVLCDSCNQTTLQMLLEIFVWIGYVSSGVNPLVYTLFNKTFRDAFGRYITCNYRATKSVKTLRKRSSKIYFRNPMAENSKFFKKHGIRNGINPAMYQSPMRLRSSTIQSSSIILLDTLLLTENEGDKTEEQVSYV
Chain of 5-hydroxytryptamine receptor 2A (Homo sapiens) (P28223 whole entry): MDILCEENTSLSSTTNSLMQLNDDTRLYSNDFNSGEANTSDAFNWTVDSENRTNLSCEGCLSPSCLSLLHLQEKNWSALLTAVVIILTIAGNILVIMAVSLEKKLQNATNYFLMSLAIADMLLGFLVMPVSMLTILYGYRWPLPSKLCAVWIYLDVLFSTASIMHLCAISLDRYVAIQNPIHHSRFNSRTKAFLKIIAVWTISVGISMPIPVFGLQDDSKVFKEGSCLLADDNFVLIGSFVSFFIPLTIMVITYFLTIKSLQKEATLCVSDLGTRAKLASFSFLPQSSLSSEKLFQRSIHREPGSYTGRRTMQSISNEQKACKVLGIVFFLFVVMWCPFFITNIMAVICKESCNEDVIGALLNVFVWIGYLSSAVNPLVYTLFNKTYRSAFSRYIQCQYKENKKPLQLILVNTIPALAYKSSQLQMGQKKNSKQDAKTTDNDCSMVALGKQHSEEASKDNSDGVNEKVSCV
T4 sequence (Q12809 whole entry): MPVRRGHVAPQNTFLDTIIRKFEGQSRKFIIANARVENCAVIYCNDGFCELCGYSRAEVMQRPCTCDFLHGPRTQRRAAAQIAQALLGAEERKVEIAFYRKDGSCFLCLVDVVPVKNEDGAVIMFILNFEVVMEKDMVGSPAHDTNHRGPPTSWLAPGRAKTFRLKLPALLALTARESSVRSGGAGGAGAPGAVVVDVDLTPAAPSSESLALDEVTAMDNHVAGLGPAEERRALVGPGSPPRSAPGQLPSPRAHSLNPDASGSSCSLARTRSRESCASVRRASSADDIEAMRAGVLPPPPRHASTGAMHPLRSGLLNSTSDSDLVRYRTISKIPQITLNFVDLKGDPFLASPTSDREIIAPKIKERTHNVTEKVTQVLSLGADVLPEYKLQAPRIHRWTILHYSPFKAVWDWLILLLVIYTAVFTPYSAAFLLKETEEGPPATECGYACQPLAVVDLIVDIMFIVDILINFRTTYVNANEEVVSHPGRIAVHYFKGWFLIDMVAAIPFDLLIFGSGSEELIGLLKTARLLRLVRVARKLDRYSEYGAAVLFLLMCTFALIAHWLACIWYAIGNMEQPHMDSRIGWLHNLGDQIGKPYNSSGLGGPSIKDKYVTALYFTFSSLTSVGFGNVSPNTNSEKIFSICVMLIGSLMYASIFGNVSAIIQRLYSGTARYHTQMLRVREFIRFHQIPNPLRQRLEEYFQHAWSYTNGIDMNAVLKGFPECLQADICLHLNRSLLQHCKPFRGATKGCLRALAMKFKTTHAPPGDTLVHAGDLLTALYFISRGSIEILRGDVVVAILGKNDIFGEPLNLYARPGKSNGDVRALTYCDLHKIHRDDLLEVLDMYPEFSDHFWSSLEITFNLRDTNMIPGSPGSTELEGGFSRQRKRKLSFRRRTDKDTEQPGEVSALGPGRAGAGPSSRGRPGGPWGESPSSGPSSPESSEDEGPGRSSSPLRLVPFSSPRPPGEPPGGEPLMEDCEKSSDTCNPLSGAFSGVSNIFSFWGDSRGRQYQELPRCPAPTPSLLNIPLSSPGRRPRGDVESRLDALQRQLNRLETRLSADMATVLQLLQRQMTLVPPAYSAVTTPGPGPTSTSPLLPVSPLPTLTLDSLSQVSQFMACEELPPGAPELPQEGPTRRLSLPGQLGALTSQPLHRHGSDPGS

In the case of `Fc1ccc2c(c1)C=CC1(CCNCC1)O2`, the Emax ([1]; filed as partial agonist) is reported as 49.5% and the EC50 ([2]; read-out: EC50) is reported as 3060 nM.

With `Clc1cccc2c1C=CC1(CCNCC1)O2` the Emax [3] was 34.1%, the EC50 [4] was 68.4 nM and the Activity [5] was “inactive”. For the same compound, the Emax [6] was 81.9% and the EC50 [7] was 31 nM.

`COc1ccc2c(c1)C=CC1(CCNCC1)O2` was tested, and the Activity [8] was “inactive”.

In the case of `Clc1ccc2c(c1)OC1(C=C2)CCCNC1` (stereo not given), the Activity [8] is reported as “inactive”.

Compound `Clc1ccc2c(c1)OC1(C=C2)CCCNCC1` (stereo not given) has an Emax [1] of 26.2% and an EC50 ([2]; read-out: EC50) of 3110 nM.

In the case of `C[C@@H]1CC2(C=Cc3ccc(Cl)cc3O2)CCN1` (stereo not given in full), the Emax ([1]; filed as partial agonist) is reported as 82.5%, the EC50 ([2]; read-out: EC50) is reported as 950 nM and the Activity [8] is reported as “inactive”.

Work on `NC1CCC2(C=Cc3ccc(Cl)cc3O2)CC1` (stereo not given) yielded an Emax ([1]; filed as partial agonist) of 69% and an EC50 ([2]; read-out: EC50) of 3380 nM.

In the case of `Cc1ccc2c(c1)OC1(C=C2)CCNCC1`, the Activity [8] is reported as “inactive”.

`C1=CC2(CCNCC2)Oc2ccccc21` gave an Emax [3] of 19.4%, an EC50 [4] of 897 nM and an Emax ([1]; filed as partial agonist) of 85.9%. For the same compound, the Activity [5] was “inactive”, the EC50 ([2]; read-out: EC50) was 147 nM and the Activity [9] was “inactive”.

`CC1CNCCC12C=Cc1ccc(Cl)cc1O2` (stereo in doubt; 29b) [listing 1 of 2 here] was tested, and the EC50 ([2]; read-out: EC50) was 2650 nM.

`CC1CNCCC12C=Cc1ccc(Cl)cc1O2` (stereo in doubt; 29a) [listing 1 of 2 here] gave an Emax ([1]; filed as partial agonist) of 80%.

In the case of `Clc1cc(Cl)c2c(c1)OC1(C=C2)CCNCC1`, the Activity [8] is reported as “inactive”.

`Clc1ccc2c(c1)C=CC1(CCNCC1)O2` gave an Emax [1] of 36.3%, an EC50 ([2]; read-out: EC50) of 215 nM and an EC50 ([2]; read-out: pEC50 (converted)) of 2000 nM.

`Fc1cccc2c1OC1(C=C2)CCNCC1` was tested, and the Emax ([1]; filed as partial agonist) was 64.4% and the EC50 ([2]; read-out: EC50) was 929 nM.

`Cc1ccc2c(c1)C=CC1(CCNCC1)O2` was tested, and the Activity [8] was “inactive”.

With `Clc1ccc2c(c1Cl)OC1(C=C2)CCNCC1` the Activity [8] was “inactive”.

With `Fc1ccc2c(c1)OC1(C=C2)CCNCC1` the Emax [6] was 91.4% and the EC50 [7] was 158 nM.

With `Clc1cccc2c1OC1(C=C2)CCNCC1` the Emax [3] was 30.9%, the EC50 [4] was 470 nM and the Emax ([1]; filed as partial agonist) was 75.7%. For the same compound, the Activity [5] was “inactive” and the EC50 ([2]; read-out: EC50) was 150 nM.

`O=C1CC2(CCNCC2)Oc2ccccc21` was tested, and the Activity [8] was “inactive”.

With `c1ccc2c(c1)CCC1(CCNCC1)O2` the Activity [8] was “inactive”.

Compound `Brc1ccc2c(c1)OC1(C=C2)CCNCC1` has an Emax ([1]; filed as partial agonist) of 72.6% and an EC50 ([2]; read-out: EC50) of 488 nM.

With `CC1CNCCC12C=Cc1ccc(Cl)cc1O2` (stereo in doubt; 29a) [listing 2 of 2 here] the EC50 ([2]; read-out: EC50) was 476 nM.

With `C[C@H]1CC2(C=Cc3ccc(Cl)cc3O2)CCN1` (stereo in doubt; 31b) the Activity [8] was “inactive”.

`Clc1ccc2c(c1)OC1(C=C2)CCNC1` (stereo not given) showed an Emax ([1]; filed as partial agonist) of 44.7% and an EC50 ([2]; read-out: EC50) of 330 nM.

For `OC1CC2(CCNCC2)Oc2ccccc21` (stereo not given), the Activity [8] was “inactive”.

`COc1cccc2c1C=CC1(CCNCC1)O2` was tested, and the Activity [8] was “inactive”.

`Clc1ccc2c(c1)OC1(C=C2)CNC1` showed an Emax ([1]; filed as partial agonist) of 58.5% and an EC50 ([2]; read-out: EC50) of 2490 nM.

`C[C@H]1CC2(C=Cc3ccc(Cl)cc3O2)CCN1` (stereo in doubt; 31a) was tested, and the Activity [8] was “inactive”.

In the case of `Clc1ccc2c(c1)OC1(C=C2)CCNCC1`, the inhibition at 10 µM (hERG (KCNH2) [10]) is reported as 43.9%, the Emax ([1]; filed as partial agonist) is reported as 71.1% and the Activity [5] is reported as “inactive”. The EC50 ([2]; read-out: EC50) was 121 nM and the Activity [9] was “inactive”.

Work on `Cc1cccc2c1C=CC1(CCNCC1)O2` yielded an Emax ([1]; filed as partial agonist) of 55.2% and an EC50 ([2]; read-out: EC50) of 170 nM.

In the case of `CC1CNCCC12C=Cc1ccc(Cl)cc1O2` (stereo in doubt; 29b) [listing 2 of 2 here], the Emax ([1]; filed as partial agonist) is reported as 73.7%.

With `COc1ccc2c3c1-c1ccccc1CC3NCC2` (stereo not given) the Activity [5] was “inactive”, the inhibition at 10 µM (hERG (KCNH2) [11]) was 92.7% and the Activity [12] was “inactive”. The EC50 ([2]; read-out: pEC50 (converted)) was 100 nM.

Compound `Cc1cccc2c1OC1(C=C2)CCNCC1` has an Emax [1] of 22.4% and an EC50 ([2]; read-out: EC50) of 2060 nM.

`COc1ccc2c(c1)OC1(C=C2)CCNCC1` gave an Emax ([1]; filed as partial agonist) of 50.4% and an EC50 ([2]; read-out: EC50) of 3740 nM.

`Clc1ccc2c(c1)OC1(C=C2)CC2CCC(C1)N2` (stereo not given) was tested, and the Activity [8] was “inactive”.
